Results on 1 compound are retold here after paper PMC5218480 (PLoS ONE, 2017).

In the assay the test system is MV-4-11 cells. The assay can be described thus: Gene expression microarray analysis (Affymetrix PrimeView) and GSEA. Also noted: RFU PODN (11730768_x_at) / Fold change /veh PODN (11730768_x_at) / RFU LINC00158 (11744669_a_at) / Fold change /veh LINC00158 (11744669_a_at) / RFU DUSP10 (11751237_a_at) / Fold change /veh DUSP10 (11751237_a_at) / RFU ID3 (11757404_x_at) / Fold change /veh ID3 (11757404_x_at) / RFU PLEKHG5 (11737974_s_at) / Fold change /veh PLEKHG5 (11737974_s_at) / RFU LRRC4B (11730491_at) / Fold change /veh LRRC4B (11730491_at) / RFU GIMAP4 (11747438_a_at) / Fold change /veh GIMAP4 (11747438_a_at) / RFU KRT8 (11758183_x_at) / Fold change /veh KRT8 (11758183_x_at) / RFU CNN1 (11734310_a_at) / Fold change /veh CNN1 (11734310_a_at) / RFU VPS37D (11726825_at) / Fold change /veh VPS37D (11726825_at) / RFU C10orf10 (11716522_x_at) / Fold change /veh C10orf10 (11716522_x_at) / RFU KIR2DL2 /// KIR2DL4 /// KIR2DL5A /// KIR2DL5B /// KIR2DS1 /// KIR2DS2 /// KIR2DS3 /// KIR2DS4 /// KIR3DL3 /// KIR3DL3 /// KIR3DS1 (11738374_at) / Fold change /veh KIR2DL2 /// KIR2DL4 /// KIR2DL5A /// KIR2DL5B /// KIR2DS1 /// KIR2DS2 /// KIR2DS3 /// KIR2DS4 /// KIR3DL3 /// KIR3DL3 /// KIR3DS1 (11738374_at) / RFU C1QL1 (11718748_at) / Fold change /veh C1QL1 (11718748_at) / RFU TMPRSS4 (11747572_a_at) / Fold change /veh TMPRSS4 (11747572_a_at) / RFU HAMP (11756126_x_at) / Fold change /veh HAMP (11756126_x_at) / RFU RNFT2 (11725882_a_at) / Fold change /veh RNFT2 (11725882_a_at) / RFU NR4A2 (11747474_a_at) / Fold change /veh NR4A2 (11747474_a_at) / RFU ABCC12 (11746883_a_at) / Fold change /veh ABCC12 (11746883_a_at) / RFU TMEM136 (11760407_x_at) / Fold change /veh TMEM136 (11760407_x_at) / RFU CLDN22 /// WWC2 (11732394_at) / Fold change /veh CLDN22 /// WWC2 (11732394_at) / RFU HLA-DPB1 (11760878_x_at) / Fold change /veh HLA-DPB1 (11760878_x_at) / RFU SPINT1 (11716480_a_at) / Fold change /veh SPINT1 (11716480_a_at) / RFU GAP43 (11754022_s_at) / Fold change /veh GAP43 (11754022_s_at) / RFU A4GNT (11735810_at) / Fold change /veh A4GNT (11735810_at) / RFU PRB3 (11715151_x_at) / Fold change /veh PRB3 (11715151_x_at) / RFU TUBB4B (11761932_at) / Fold change /veh TUBB4B (11761932_at) / RFU CAPN14 (11732068_a_at) / Fold change /veh CAPN14 (11732068_a_at) / RFU TMCC2 (11721928_a_at) / Fold change /veh TMCC2 (11721928_a_at) / RFU IRGQ (11745062_a_at) / Fold change /veh IRGQ (11745062_a_at) / RFU FAM174B (11720279_a_at) / Fold change /veh FAM174B (11720279_a_at) / RFU TMPRSS4 (11748680_a_at) / Fold change /veh TMPRSS4 (11748680_a_at) / RFU FAM212B (11763350_a_at) / Fold change /veh FAM212B (11763350_a_at) / RFU PLEKHG5 (11743358_a_at) / Fold change /veh PLEKHG5 (11743358_a_at) / RFU ZSCAN30 (11745921_a_at) / Fold change /veh ZSCAN30 (11745921_a_at) / RFU CMKLR1 (11741424_a_at) / Fold change /veh CMKLR1 (11741424_a_at) / RFU LOC101060620 /// MAPK8IP1 (11723275_at) / Fold change /veh LOC101060620 /// MAPK8IP1 (11723275_at) / RFU SPTSSB (11747773_x_at) / Fold change /veh SPTSSB (11747773_x_at) / RFU PRSS12 (11739890_at) / Fold change /veh PRSS12 (11739890_at) / RFU BIN1 (11741810_x_at) / Fold change /veh BIN1 (11741810_x_at) / RFU WNT11 (11732464_a_at) / Fold change /veh WNT11 (11732464_a_at) / RFU C10orf10 (11716521_a_at) / Fold change /veh C10orf10 (11716521_a_at) / RFU C5orf56 (11738089_at) / Fold change /veh C5orf56 (11738089_at) / RFU CYB561 (11721691_x_at) / Fold change /veh CYB561 (11721691_x_at) / RFU ANKRD19P (11752326_a_at) / Fold change /veh ANKRD19P (11752326_a_at) / RFU OR2T12 /// OR2T33 /// OR2T8 (11738714_s_at) / Fold change /veh OR2T12 /// OR2T33 /// OR2T8 (11738714_s_at) / RFU VCAN (11748164_a_at) / Fold change /veh VCAN (11748164_a_at) / RFU JSRP1 (11732532_at) / Fold change /veh JSRP1 (11732532_at) / RFU KRTAP10-11 (11738290_x_at) / Fold change /veh KRTAP10-11 (11738290_x_at) / RFU MYO3A (11730013_a_at) / Fold change /veh MYO3A (11730013_a_at) / RFU EBF3 (11725865_a_at) / Fold change /veh EBF3 (11725865_a_at) / RFU CAMK2N1 (11719241_x_at) / Fold change /veh CAMK2N1 (11719241_x_at) / RFU C5orf56 (11738088_a_at) / Fold change /veh C5orf56 (11738088_a_at) / RFU OLFML3 (11715873_a_at) / Fold change /veh OLFML3 (11715873_a_at) / RFU LOC100653217 /// NTM (11731650_a_at) / Fold change /veh LOC100653217 /// NTM (11731650_a_at) / RFU MAPK11 (11762145_a_at) / Fold change /veh MAPK11 (11762145_a_at) / RFU FIZ1 (11724087_x_at) / Fold change /veh FIZ1 (11724087_x_at) / RFU OASL (11726364_x_at) / Fold change /veh OASL (11726364_x_at) / RFU SOX15 (11748057_x_at) / Fold change /veh SOX15 (11748057_x_at) / RFU CD79A (11719716_a_at) / Fold change /veh CD79A (11719716_a_at) / RFU HIST1H1D (11736915_at) / Fold change /veh HIST1H1D (11736915_at) / RFU CASKIN2 (11723855_a_at) / Fold change /veh CASKIN2 (11723855_a_at) / RFU LOC730098 (11760151_x_at) / Fold change /veh LOC730098 (11760151_x_at) / RFU OR4N2 (11742367_at) / Fold change /veh OR4N2 (11742367_at) / RFU PRRT2 (11749266_a_at) / Fold change /veh PRRT2 (11749266_a_at) / RFU SNX32 (11753110_a_at) / Fold change /veh SNX32 (11753110_a_at) / RFU CDHR5 (11726645_a_at) / Fold change /veh CDHR5 (11726645_a_at) / RFU RCAN1 (11760418_a_at) / Fold change /veh RCAN1 (11760418_a_at) / RFU FAM167A (11723789_a_at) / Fold change /veh FAM167A (11723789_a_at) / RFU FAM26E (11764081_at) / Fold change /veh FAM26E (11764081_at) / RFU ISYNA1 (11749810_s_at) / Fold change /veh ISYNA1 (11749810_s_at) / RFU ACY1 (11761880_at) / Fold change /veh ACY1 (11761880_at) / RFU 11764098_at / Fold change /veh 11764098_at / RFU SAMD14 (11745864_x_at) / Fold change /veh SAMD14 (11745864_x_at) / RFU NPB (11741838_a_at) / Fold change /veh NPB (11741838_a_at) / RFU TMPRSS6 (11731388_a_at) / Fold change /veh TMPRSS6 (11731388_a_at) / RFU KRTAP10-2 (11738614_at) / Fold change /veh KRTAP10-2 (11738614_at) / RFU ARHGAP8 /// PRR5-ARHGAP8 (11727945_x_at) / Fold change /veh ARHGAP8 /// PRR5-ARHGAP8 (11727945_x_at) / RFU KRTAP5-7 /// NADSYN1 (11734609_at) / Fold change /veh KRTAP5-7 /// NADSYN1 (11734609_at) / RFU RASL12 (11751679_a_at) / Fold change /veh RASL12 (11751679_a_at) / RFU CDKN2B (11736163_a_at) / Fold change /veh CDKN2B (11736163_a_at) / RFU PRF1 (11729649_at) / Fold change /veh PRF1 (11729649_at) / RFU, ZNF638 /// ZNF638-IT1 / Fold change vs veh, ZNF638 /// ZNF638-IT1 / RFU, PANK3 / Fold change vs veh, PANK3 / RFU, SH3YL1 / Fold change vs veh, SH3YL1 / RFU, ZEB2 / Fold change vs veh, ZEB2 / RFU, NRIP1 / Fold change vs veh, NRIP1 / RFU, PTTG1IP / Fold change vs veh, PTTG1IP / RFU, CAPN2 / Fold change vs veh, CAPN2 / RFU, MED14 / Fold change vs veh, MED14 / RFU, SNORA58 / Fold change vs veh, SNORA58 / RFU, C1orf63 / Fold change vs veh, C1orf63 / RFU, LRRFIP1 / Fold change vs veh, LRRFIP1 / RFU, NDUFAF7 / Fold change vs veh, NDUFAF7 / RFU, SLC12A2 / Fold change vs veh, SLC12A2 / RFU, IBTK / Fold change vs veh, IBTK / RFU, ESF1 / Fold change vs veh, ESF1 / Fold change vs veh, TMEM50B / RFU, TAOK1 / Fold change vs veh, TAOK1 / RFU, ACBD3 / Fold change vs veh, ACBD3 / RFU, TMA16 / Fold change vs veh, TMA16 / RFU, RWDD3 / Fold change vs veh, RWDD3 / RFU, BCAT1 / Fold change vs veh, BCAT1 / RFU, EDEM3 / Fold change vs veh, EDEM3 / RFU, TMEM33 / Fold change vs veh, TMEM33 / RFU, WDR75 / Fold change vs veh, WDR75 / RFU, AHCTF1 / Fold change vs veh, AHCTF1 / RFU, TFRC / Fold change vs veh, TFRC / RFU, ZDHHC17 / Fold change vs veh, ZDHHC17 / RFU, NOM1 / Fold change vs veh, NOM1 / RFU, ARL8B / Fold change vs veh, ARL8B / RFU, ZBTB11 / Fold change vs veh, ZBTB11 / RFU, TAMM41 / Fold change vs veh, TAMM41 / RFU, KIAA1704 /// LOC100996395 / Fold change vs veh, KIAA1704 /// LOC100996395 / RFU, ING1 / Fold change vs veh, ING1 / RFU, TRMT61B / Fold change vs veh, TRMT61B / RFU, FUBP3 / Fold change vs veh, FUBP3 / RFU, TP53 / Fold change vs veh, TP53 / RFU, TNKS2 / Fold change vs veh, TNKS2 / RFU, ZFP14 / Fold change vs veh, ZFP14 / RFU, ACTR2 / Fold change vs veh, ACTR2 / RFU, PPP3R1 / Fold change vs veh, PPP3R1 / RFU, PIK3R1 / Fold change vs veh, PIK3R1 / RFU, HNRNPA1 / Fold change vs veh, HNRNPA1 / RFU, RNF170 / Fold change vs veh, RNF170 / RFU, ZNF28 / Fold change vs veh, ZNF28 / RFU, RNGTT / Fold change vs veh, RNGTT / RFU, OGT / Fold change vs veh, OGT / RFU, BRD1 / Fold change vs veh, BRD1 / RFU, MARS / Fold change vs veh, MARS / RFU, ZNF655 / Fold change vs veh, ZNF655 / RFU, FAHD1 / Fold change vs veh, FAHD1 / RFU, BDP1 / Fold change vs veh, BDP1 / RFU, LRRCC1 / Fold change vs veh, LRRCC1 / RFU, ARID1A / Fold change vs veh, ARID1A / RFU, ZNF146 / Fold change vs veh, ZNF146 / RFU, ZNF330 / Fold change vs veh, ZNF330 / RFU, GPN3 / Fold change vs veh, GPN3 / RFU, C9orf123 / Fold change vs veh, C9orf123 / RFU, N4BP2L2 / Fold change vs veh, N4BP2L2 / RFU, ARFIP1 / Fold change vs veh, ARFIP1 / RFU, FAM179B / Fold change vs veh, FAM179B / RFU, BCL10 / Fold change vs veh, BCL10 / RFU, UHRF1BP1L / Fold change vs veh, UHRF1BP1L / RFU, BET1 / Fold change vs veh, BET1 / RFU, CNOT2 / Fold change vs veh, CNOT2 / RFU, ZNF268 / Fold change vs veh, ZNF268 / Fold change vs veh, ZNF507 / RFU, DGCR2 / Fold change vs veh, DGCR2 / RFU, WDSUB1 / Fold change vs veh, WDSUB1 / Fold change vs veh, HSP90B1 /// MIR3652 / RFU, ADSS / Fold change vs veh, ADSS / RFU, GK / Fold change vs veh, GK / RFU, ZNF148 / Fold change vs veh, ZNF148 / RFU, TAF9 / Fold change vs veh, TAF9 / RFU, SLC1A5 / Fold change vs veh, SLC1A5 / RFU, SLMO2 / Fold change vs veh, SLMO2 / RFU, ABCC4 / Fold change vs veh, ABCC4 / RFU, LOC101060439 /// RAP1B / Fold change vs veh, LOC101060439 /// RAP1B / RFU, RFX7 / Fold change vs veh, RFX7 / RFU, GTPBP10 / Fold change vs veh, GTPBP10 / RFU, CNEP1R1 / Fold change vs veh, CNEP1R1 / RFU, BIVM-ERCC5 /// ERCC5 / Fold change vs veh, BIVM-ERCC5 /// ERCC5 / RFU, ILF3 / Fold change vs veh, ILF3 / RFU 11762660_at / Fold change /veh 11762660_at / RFU VCAN (11757783_s_at) / Fold change /veh VCAN (11757783_s_at) / RFU DDX43 (11728927_at) / Fold change /veh DDX43 (11728927_at) / RFU KRT8 (11758188_x_at) / Fold change /veh KRT8 (11758188_x_at) / RFU NKD1 (11759106_at) / Fold change /veh NKD1 (11759106_at) / RFU SRD5A1 (11742802_a_at) / Fold change /veh SRD5A1 (11742802_a_at) / RFU TPSAB1 /// TPSB2 (11721975_s_at) / Fold change /veh TPSAB1 /// TPSB2 (11721975_s_at) / RFU GSTM3 (11746129_a_at) / Fold change /veh GSTM3 (11746129_a_at) / RFU IL23R (11737362_x_at) / Fold change /veh IL23R (11737362_x_at) / RFU TMEM51 (11727254_a_at) / Fold change /veh TMEM51 (11727254_a_at) / RFU PIWIL2 (11732686_x_at) / Fold change /veh PIWIL2 (11732686_x_at) / RFU ORM1 (11744905_x_at) / Fold change /veh ORM1 (11744905_x_at) / RFU CCDC152 (11743942_at) / Fold change /veh CCDC152 (11743942_at) / RFU ECM1 (11717891_a_at) / Fold change /veh ECM1 (11717891_a_at) / RFU IL23R (11748794_a_at) / Fold change /veh IL23R (11748794_a_at) / RFU TNFAIP8L3 (11732012_x_at) / Fold change /veh TNFAIP8L3 (11732012_x_at) / RFU MBOAT4 (11741988_at) / Fold change /veh MBOAT4 (11741988_at) / RFU 11764193_at / Fold change /veh 11764193_at / RFU TMEM53 (11763286_at) / Fold change /veh TMEM53 (11763286_at) / RFU MAGEB2 (11727129_at) / Fold change /veh MAGEB2 (11727129_at) / RFU TMEM200A (11744735_a_at) / Fold change /veh TMEM200A (11744735_a_at) / RFU CCDC152 (11751479_a_at) / Fold change /veh CCDC152 (11751479_a_at) / RFU FAM211A (11726209_a_at) / Fold change /veh FAM211A (11726209_a_at) / RFU RGS16 (11746705_a_at) / Fold change /veh RGS16 (11746705_a_at) / RFU VCAN (11755009_s_at) / Fold change /veh VCAN (11755009_s_at) / RFU RHOB (11743442_s_at) / Fold change /veh RHOB (11743442_s_at) / RFU RGS16 (11720943_a_at) / Fold change /veh RGS16 (11720943_a_at) / RFU RGS16 (11720944_at) / Fold change /veh RGS16 (11720944_at) / RFU, VPS4B / Fold change vs veh, VPS4B / RFU, CREB1 / Fold change vs veh, CREB1 / RFU, DNAJC13 / Fold change vs veh, DNAJC13 / RFU, GNAQ / Fold change vs veh, GNAQ / RFU, CDK5R1 / Fold change vs veh, CDK5R1 / RFU, ZRANB3 / Fold change vs veh, ZRANB3 / RFU, CUL4A / Fold change vs veh, CUL4A / RFU, CCNY / Fold change vs veh, CCNY / RFU, UFL1 / Fold change vs veh, UFL1 / RFU, COG3 / Fold change vs veh, COG3 / RFU, DIAPH2 / Fold change vs veh, DIAPH2 / RFU, SKA2 / Fold change vs veh, SKA2 / RFU, AFF3 / Fold change vs veh, AFF3 / RFU, LMF1 / Fold change vs veh, LMF1 / RFU, IPO11 / Fold change vs veh, IPO11 / RFU, DFFB / Fold change vs veh, DFFB / RFU, FOXP1 / Fold change vs veh, FOXP1 / RFU, CARD8 / Fold change vs veh, CARD8 / RFU, STRN3 / Fold change vs veh, STRN3 / RFU, ADK / Fold change vs veh, ADK / RFU, RASSF2 / Fold change vs veh, RASSF2 / RFU, WIPF1 / Fold change vs veh, WIPF1 / RFU, LARP1B / Fold change vs veh, LARP1B / RFU, RASA1 / Fold change vs veh, RASA1 / RFU, RB1 / Fold change vs veh, RB1 / RFU, PPFIA1 / Fold change vs veh, PPFIA1 / RFU, MAT2A / Fold change vs veh, MAT2A / RFU, CCT5 / Fold change vs veh, CCT5 / RFU, WDR92 / Fold change vs veh, WDR92 / RFU, CUX1 / Fold change vs veh, CUX1 / RFU, TTC7A / Fold change vs veh, TTC7A / RFU, TMEM135 / Fold change vs veh, TMEM135 / RFU, DEPTOR / Fold change vs veh, DEPTOR / RFU, CPM / Fold change vs veh, CPM / RFU, DNAJB6 / Fold change vs veh, DNAJB6 / RFU, CACNA2D3 / Fold change vs veh, CACNA2D3 / RFU, DTX4 / Fold change vs veh, DTX4 / RFU, TFCP2 / Fold change vs veh, TFCP2 / RFU, GMCL1 /// GMCL1P1 / Fold change vs veh, GMCL1 /// GMCL1P1 / RFU, AEBP2 / Fold change vs veh, AEBP2 / RFU, SNHG1 /// SNORD22 /// SNORD25 /// SNORD26 /// SNORD27 /// SNORD28 /// SNORD29 /// SNORD31 / Fold change vs veh, SNHG1 /// SNORD22 /// SNORD25 /// SNORD26 /// SNORD27 /// SNORD28 /// SNORD29 /// SNORD31 / Fold change (Aza/veh), C12orf56 (ProbeSet 11735607_a_at) / Fold change (ACY-1035/veh), C12orf56 (ProbeSet 11735607_a_at) / Fold change (Aza/veh), FGFR1OP (ProbeSet 11751329_s_at) / Fold change (ACY-1035/veh), FGFR1OP (ProbeSet 11751329_s_at) / Fold change (Aza/veh), VPS36 (ProbeSet 11739960_a_at) / Fold change (ACY-1035/veh), VPS36 (ProbeSet 11739960_a_at) / RFU SYPL1 (11715823_x_at) / Fold change /veh SYPL1 (11715823_x_at) / RFU IGFBP7 (11715501_s_at) / Fold change /veh IGFBP7 (11715501_s_at) / RFU REEP3 (11722064_at) / Fold change /veh REEP3 (11722064_at) / RFU IGLL1 (11728026_x_at) / Fold change /veh IGLL1 (11728026_x_at): dose or concentration left out as unconfirmed. Particulars: ProbeSet 11740528_a_at; LIST D. In kind it is cell-based, human.

Turning to `Nc1ccc(-c2cccs2)cc1NC(=O)c1ccc2c(c1)cc(C1CC1)n2CCN1CCOCC1` [ACY-1035], the “Fold change vs veh, AFF3” value came to 0.95.
